Read-outs that look alike come from different tables or passages of the source.
How the values were obtained:
[1] = biological target: T1, Human thymidine kinase 1 (TK1) (Homo sapiens, UniProt P04183); assay: Thymidine kinase coupled (kinetic) ATP depletion assay; assay type: biochemical; settings: initial velocity relative to thymidine; 100 μM conjugate
T1 construct: His tag (from pET28b(+)) (N); made in house; host or cells: E. coli BL21-codon plus
T1 sequence (P04183 1-234): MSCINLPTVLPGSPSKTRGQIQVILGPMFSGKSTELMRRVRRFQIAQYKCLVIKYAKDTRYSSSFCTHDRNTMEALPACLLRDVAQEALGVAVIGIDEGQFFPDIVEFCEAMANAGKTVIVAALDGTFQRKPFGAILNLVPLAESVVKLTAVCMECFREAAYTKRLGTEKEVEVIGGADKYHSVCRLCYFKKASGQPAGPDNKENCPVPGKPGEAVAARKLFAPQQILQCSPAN
Experimental: Thymidine kinase, viral thymidine kinase, TK-1 deoxycytidine kinase, and deoxyguanosine kinase activities are determined by subjecting a first end of a linker used in synthesizing linker-substrate constructs to a first test. The first test may involve observing ADP formation, an obligatory co-product of phospho group transfer from ATP which is catalyzed by the kinase to the C5′ hydroxyl group or its equivalent in the nucleoside or nucleoside analog. Formation of ADP is followed by a coupled enzyme assay well known in the art. ADP, formed from kinase phosphorylation, is used by pyruvate kinase to generate pyruvate from phosphoenolpyruvate which in turn is converted to lactate by lactate dehydrogenase. The lactate results in the consumption of NADH which is followed spectrophotometrically. The rate of nucleoside phosphorylation is then directly related to the rate of decrease in the observed NADH signal.
TK1 was amplified using PCR with forward primer 5′-[…]-3′ and reverse primer 5′-[…]-3′. The PCR product was digested with Nde I and Hind III. An N-terminal His-tagged TK1 construct, TK1/pET28b(+), was generated by subcloning TK1 into the Nde I and Hind III sites of prokaryotic expression vector pET28b (+) (Novagen, San Diego, Calif.). TK1 was expressed from TK1/pET28b(+) using E. coli strain BL21-codon plus (Stratagene, San Diego, Calif.) and purified by Ni column chromatography.
A coupled (kinetic) ATP depletion assay was developed to measure thymidine kinase activity. The reaction contained 100 mM Tris HCl, pH 7.5, 20 mM MgCl2, 100 mM KCl, 0.4 mM PEP, 0.2 mM NADH, Pyruvate Kinase (0.7 units)/Lactate Dehydrogenase (1.0 unit) (Sigma #PO294), 2.5-10 μg Thymidine Kinase, 100 μM thymidine or thymidine-drug conjugate in a volume of 75 μl. ATP (5 mM in 25 μl H2O) was added to initiate the reaction and the velocity of ATP depletion was monitored at 340 nm continuously for 15 minutes.

MCF-7 breast carcinoma [2] = assay: Cytotoxicity assay (monolayer), MCF-7; assay type: cell-based; settings: Homo sapiens, MCF7
Experimental: (§1) Statistical Assoc., 81, 991-999, 1986.
(§2) Monolayer assays with tumor cell lines (MCF-7 breast carcinoma and HT-29 colorectal carcinoma from ATCC) were carried out in triplicate in 96-well plates with RPMI1640 medium containing 5% fetal bovine serum, 100 U/ml penicillin and 100 μg/ml streptomycin. Normal human foreskin fibroblasts (HFF #CC-2509) were from Cambrex and were cultured in FGM-2 medium. Exponentially growing cells (5,000 MCF-7 or HT-29; 1,500 HFF) were plated in 100 μl medium and incubated overnight (5% CO2, 37° C.). Compounds (20 pM to 20 μM final concentration, 6-8 doses) and vehicle (DMSO) controls were added and the incubation was continued for an additional 72 hours. Final cell density was determined by incubating cultures with 25 μl AlamarBlue reagent (BioSource, Camarillo, Calif.) for 4 hours, followed by determination of fluorescence at excitation of 544 nm and emission of 590 nm with a SpectroMax Gemini EM fluorescence plate reader (Molecular Devices, Sunnyvale, Calif.). EC50 values were generated from dose-response curves by a 4-parameter method using Softmax PRO software. Mean EC50s (±SD) represent the average of all tests carried out for all lots of a given compound. […] Statistical Assoc., 81, 991-999 (1986).

[3] = system: HT-29 colorectal carcinoma; assay: Cytotoxicity assay (monolayer), HT-29; assay type: cell-based; settings: Homo sapiens
Experimental: as §1, §2

MCF7 = assay: Cytotoxicity assay, MCF7 SSA (SSA not explained); assay type: cell-based; settings: Homo sapiens
HT29 = assay: Cytotoxicity assay, HT29 SSA (SSA not explained); assay type: cell-based; settings: Homo sapiens, HT-29; read-out: HT29 (EC50 Ave) SSA
[4] = Serum stability in RPMI1640 medium containing 10% fetal bovine serum; assay type: in vitro ADME
Experimental: The stability of conjugates was measured in RPMI1640 cell culture medium containing 10% fetal bovine serum. The serum-containing medium was pre-warmed at 37° C. for 3 min prior to addition of test articles. Test articles, prepared in DMSO as 5 mM stocks, were added to the cell culture media to a final concentration of […]. Aliquots ([…]) were withdrawn in triplicate at 0, 4, 8, 24 and 72 hours and combined with the same volume of ice-cold acetonitrile to terminate the reaction. The mixture was centrifuged at 2,000×g for 10 minutes. One part of the supernatant was mixed with four parts of deionized water to bring down the percentage of organic solvent. The diluted samples were then assayed by LC/MS for the test article. The natural log of the percent remaining was plotted versus time. A linear fit was used to determine the rate constant. The fit was truncated after the percent of remaining test article was less than 10%. The elimination half-lives associated with the disappearance of test articles were determined to compare their relative stability. The assays were carried out by Absorption Systems (Exton, Pa.).

[5] = Cytotoxicity assay (soft agar), MCF-7; settings: human
MCF-7 breast carcinoma [6] = assay: Cytotoxicity assay (soft agar), MCF-7; settings: Homo sapiens

In the case of `CC(=O)O[C@H]1C(=O)[C@@]2(C)[C@H]([C@H](OC(=O)c3ccccc3)[C@]3(O)C[C@H](OC(=O)[C@H](O)[C@@H](NC(=O)c4ccccc4)c4ccccc4)C(C)=C1C3(C)C)[C@]1(OC(C)=O)CO[C@@H]1C[C@@H]2O` [Paclitaxel], the “Ave. TK1 Kinase Act.” value [1] is reported as “A (A<20)”, the EC50 (MCF-7 breast carcinoma [2]; mean ± SD, read-out: MCF-7 Monolayer EC50) is reported as 5 ± 2 nM and the EC50 (MCF-7 breast carcinoma [2]; monolayer, 72 hours, AlamarBlue, read-out: MCF7 (EC50 Ave) ML) is reported as < 100 nM. The EC50 ([3]; mean ± SD, read-out: HT-29 Monolayer EC50) was 5 ± 3 nM, the EC50 ([3]; monolayer, 72 hours, AlamarBlue, read-out: HT29 (EC50 Ave) ML) was < 100 nM and the EC50 (MCF7) was < 100 nM. The EC50 (HT29) was < 100 nM, the “Relative Percent Remaining at 0 hr” value ([4]; 37° C., medium with 10% fetal bovine serum, 0 hr) was 100% and the “Relative Percent Remaining at 4 hr” value ([4]; 37° C., medium with 10% fetal bovine serum, 4 hr) was 73%. For the same molecule, the “Relative Percent Remaining at 8 hr” value ([4]; 37° C., medium with 10% fetal bovine serum, 8 hr) was 59%, the “Relative Percent Remaining at 24 hr” value ([4]; 37° C., medium with 10% fetal bovine serum, 24 hr) was 28% and the “Relative Percent Remaining at 72 hr” value ([4]; 37° C., medium with 10% fetal bovine serum, 72 hr) was <3.0%. The half-life ([4]; bovine) was 11 h, the selectivity ratio [5] was 1.4 and the EC50 (MCF-7 breast carcinoma [6]; MCF7, read-out: MCF7 (EC50 Ave) SA) was < 100 nM. For the same molecule, the EC50 (MCF-7 breast carcinoma [6]; MCF7, read-out: MCF-7 Soft Agar EC50) was 6 ± 3 nM.
